Measured values taken from patent EP0744402B1, “POTASSIUM SALT OF BIPHENYLMETHANE DERIVATIVE AND MEDICINE CONTAINING THE SAME” (priority 1994, dated 1995).
Structures can show the parent of a compound that is named as a salt.

Assays:
renal hypertensive rats = assay: Antihypertensive action on renal hypertensive rats (invasive); type: in vivo, rat; conditions: male SD renal hypertensive rats, mean blood pressure, orally 0.3 mg/kg, suspended in 0.5% carboxymethyl cellulose
Source text: Antihypertensive action on renal hypertensive rats (invasive)
Renal hypertensive rats were each prepared by constricting the left renal artery of a male SD rat (age: 6 weeks old, body weight: 190-220 g) with a silver clip (inner diameter: 0.017 inch) under anesthesia. Antihypertensive action was studied employing the rats whose mean blood pressure arose to 150 mmHg or higher in 4-8 weeks after the constriction of the renal artery. On the day before the test, a cannula for measure of blood pressure was inserted into the femoral artery of each of the renal hypertensive rats under anesthesia and was allowed to remain in the artery. The rats were maintained on food and water ad libitum until immediately before the test was started. The cannula so inserted was connected to a blood pressure transducer and a mean blood pressure was recorded on a polygraph. After the blood pressure became stable, the test compound which was suspended in 0.5% carboxymethyl cellulose was orally administered to each of the rats at 0.3 mg/kg. In accordance with the following equation, a decreased rate of blood pressure (%) was calculated from the blood pressure values before and after the administration of the test compound.

[1] = Measurement of bioavailability in rat; type: in vivo; conditions: SD male rats, fasted overnight, 3 mg/kg intravenously (physiological saline) and orally (0.5% carboxymethyl cellulose), from plasma AUC by HPLC
Protocol: Measurement of bioavailability in rat
SD Male rats of 6 weeks old (5 rats a group) were fasted overnight. The test compound was then administered to each of the rats at 3 mg/kg intravenously after dissolved in physiological saline and orally after suspended in 0.5% carboxymethyl cellulose, respectively. After administration, blood was collected periodically. From the blood so collected, plasma was separated by centrifugation. The test compound in the plasma was determined by high-performance liquid chromatography and based on it, areas under concentration (AUC) in intravenous administration and oral administration were found respectively. Bioavailability (BA) of the test compound for the rats was calculated in accordance with the following equation.

angiotensin II = assay: Inhibition of the angiotensin II-induced blood pressure increase in conscious normotensive rats after oral administration (invasive); type: in vivo, rat; conditions: male SD rats; angiotensin II intravenously 0.1 µg/kg; test compound orally 1.0 mg/kg in 0.5% carboxymethyl cellulose
Protocol: On the day before the test, a cannula for the measurement of blood pressure and another cannula for the administration of a solution of angiotensin II (AII) in physiological saline (intravenously administered at 0.1 µg/kg) were inserted into the right femoral artery and the right femoral vein of each of the male SD rats (body weight: 200-350 g), respectively, under anesthesia. The rats were maintained on food and water ad libitum until immediately before the test was started. On the testing day, the former cannula so inserted was connected to a blood pressure transducer and the mean blood pressure was recorded on a polygraph. The solution of AII in physiological saline was then intravenously administered to each of the rats to raise its blood pressure. The blood-pressure raising response was repeated several times. […] In accordance with the following equation, an inhibitory rate (%) of blood pressure increase was calculated from the blood pressure increases before and after the administration of the test compound.

Structure (SMILES) | Rate of decrease in blood pressure (renal hypertensive rats; 0.3 mg/kg) [%] | BA (%) [1] [%] | Inhibition of blood pressure increase (%) (angiotensin II) | Rate of decrease in blood pressure (renal hypertensive rats) [%]
CCc1nn(Cc2ccc(-c3ccccc3-c3nnn[nH]3)cc2)c(=NC(=O)C2=C(C(=O)O)CCC2)s1 [Compound A, dipotassium 2-[[5-ethyl-3-[2'-(1H-tetrazol-5-yl)biphenyl-4-yl]methyl-1,3,4-thiadiazolin-2-ylidene]aminocarbonyl]-1-cyclopentenecarboxylate] | 23.0 | 42.8 | 84.6 | –
CCc1nn(Cc2ccc(-c3ccccc3-c3nn[nH]n3)cc2)c(=NC(=O)C2=C(C(=O)O)CCC2)s1 [Control 2Na salt, reference compound] | 12.9 | – | – | –
CCc1nn(Cc2ccc(-c3ccccc3-c3nnn[nH]3)cc2)c(=NC(=O)C2=C(C(=O)[O-])CCC2)s1.[K+] [Compound B, monopotassium 2-[[5-ethyl-3-[2' -(1H-tetrazol-5-yl)biphenyl-4-yl]methyl-1,3,4-thiadiazolin-2-ylidene]aminocarbonyl]-1-cyclopentenecarboxylate] | – | – | – | 19.8
CCc1nn(Cc2ccc(-c3ccccc3-c3nnn[nH]3)cc2)c(=NC(=O)C2=C(C(=O)O)CCC2)s1 [Compound (2), 2-[[5-Ethyl-3-[2'-(1H-tetrazol-5-yl)biphenyl-4-yl]methyl-1,3,4-thiadiazolin-2-ylidene]aminocarbonyl]-1-cyclopentenecarboxylic acid] | – | 12.0 | 54.2 | 10.8
